Test system: HUVECs
Assay: Capillary-like tube formation assay (tubulogenesis)
Format: cell-based, human
Settings: for IC50: Homo sapiens, HUVEC, anti-angiogenic activity, read-out: IC50 value; for remarks: remark on IC50 versus sunitinib
Method: FIG. 2 represents effect of Compound 1 on capillary tube formation of HUVECs. Endothelial cells in Matrigel were incubated with ECM basal medium in the presence of compound 1 at the indicated concentrations for 6 h. Cell viability was assessed by Calcein-AM dye added few min. before the completion of 6 h. then photographs at 10×magnification were taken using an inverted microscope. The tubule length of HUVECs was quantified by Leica QWin software. Tubule network formation is expressed as a percentage of that vehicle (0.1% DMSO) treated cells (control).
FIG. 9 represents effect of racemic mixture (chiral isomer 1-1 and chiral isomer 2-1) of Compound 1 on capillary tube formation of HUVECs. Endothelial cells seeded in matrigel were incubated at the indicated concentrations of compound 1 racemic mixtures (1-1 and 2-1) with ECM basal medium for 6 h. Calcein-AM treatment was added to the ECs few minutes before completion of 6 h and pictures were captured using an inverted microscope at 10×magnification. The tubular structures of HUVECs were measured using Leica QWin software and tubulogenesis was expressed as a % of that vehicle (0.1% DMSO) treated cells (control) well.
HUVEC cells were incubated with or without sunitinib (20 nM) for 6 h at indicated concentrations of chiral isomers of Compound 1 (1-1 and 2-1). Photographs were taken using an inverted microscope at 10×magnification after Calcein-AM treatment to the ECs few minutes before completion of 6 h. The tubule length of HUVECs was quantified by Leica QWin software represented as a % of that vehicle (0.1% DMSO) treated cells (control) well.
To examine the effect of Compound 1 on angiogenesis, capillary tube formation assay was performed on regular or reduced growth factor Matrigel, taking VEGF (50 ng/mL) treated cells as a positive control and sunitinib (50 nM) as a negative control (FIG. 2). HUVECs seeded onto the matrigel with compound 1 at different concentrations of (10 μM, 5 μM, 1 μM, 800 nM, 500 nM, 250 nM, 125 nM, 75 nM, 50 nM, 25 nM and 10 nM) were incubated for six hours.
HUVECs (Human Umbilical Vein Endothelial Cells) were seeded onto the pre-coated matrigel (CORNING; 354230) in 96 wells plate at the rate of 11000 cells/well in incomplete ECM basal medium. Control group received vehicle, VEGF at 50 ng/mL as a positive and sunitinib at 50 nM as a negative control were used. Compound 1 at different dose concentrations (10 μM, 5 μM, 1 μM, 800 nM, 500 nM, 250 nM, 100 nM, 75 nM, 50 nM and 25 nM) were employed on seeded HUVECs in incomplete medium. Post 6 h of incubation Calcein-AM (Invitrogen) was added to all the respective groups and then the tubule pattern was observed and photographs were taken using an inverted fluorescent microscope (DM 6000, Leica Microsystems, USA). Relative tubule lengths were measured using Leica Q-Win software version 3.5.1. (Leica Microsystems, Switzerland).

[1] = endothelial tubule network assay

| SMILES | IC50 [1] [nM] | IC50 value (endothelial tubule network assay, result in words) | remarks |
| --- | --- | --- | --- |
| C=CCCCC1=NC1C(=O)OCC (stereo not drawn) [Compound 2, Ethyl 3-(pent-4-en-1-yl)-2H-azirine-2-carboxylate] | 250 |  |  |
| CCOC(=O)C1N=C1CCC=C(C)C (stereo not drawn) [Compound 4, Ethyl 3-(4-methylpent-3-en-1-yl)-2H-azirine-2-carboxylate] |  | Not Active |  |
| CCOC(=O)C1N=C1CC/C=C(\C)CCC=C(C)C (stereo not drawn) [Compound 5, Ethyl (E)-3-(4,8-dimethylnona-3,7-dien-1-yl)-2H-azirine-2-carboxylate] | 350 |  |  |
| CCOC(=O)C1N=C1CCc1ccccc1 (stereo not drawn) [Compound 6, Ethyl 3-phenethyl-2H-azirine-2-carboxylate] | 5000 |  |  |
| CCOC(=O)C1N=C1CCc1ccc(C)cc1 (stereo not drawn) [Compound 7, Ethyl 3-(4-methylphenethyl)-2H-azirine-2-carboxylate] | 4000 |  |  |
| CCOC(=O)C1N=C1CCc1ccc(C(C)(C)C)cc1 (stereo not drawn) [Compound 9, Ethyl 3-(4-(tert-butyl)phenethyl)-2H-azirine-2-carboxylate] | 550 |  |  |
| CCOC(=O)C1N=C1CCc1ccc(F)cc1 (stereo not drawn) [Compound 10, Ethyl 3-(4-fluorophenethyl)-2H-azirine-2-carboxylate] | 600 |  |  |
| CCOC(=O)C1N=C1CC/C=C/c1ccccc1 (stereo not drawn) [Compound 11, Ethyl (E)-3-(4-phenylbut-3-en-1-yl)-2H-azirine-2-carboxylate] | 450 |  |  |
| CCOC(=O)C1N=C1CCc1cc(OC)c(OC)c(OC)c1 (stereo not drawn) [Compound 12, Ethyl 3-(3,4,5-trimethoxyphenethyl)-2H-azirine-2-carboxylate] | 200 |  |  |
| CCOC(=O)C1N=C1/C=C/c1ccc(OC)cc1 (stereo not drawn) [Compound 13, Ethyl (E)-3-(4-methoxystyryl)-2H-azirine-2-carboxylate] | 100 |  | comparable to sunitinib |
| COC(=O)C1N=C1CCc1ccc(OC)cc1 (stereo not drawn) [Compound 14, Methyl 3-(4-methoxyphenethyl)-2H-azirine-2-carboxylate] | 750 |  |  |
| CCOC(=O)C1N=C1CCc1ccc(Br)cc1 (stereo not drawn) [Compound 15, Ethyl 3-(4-bromophenethyl)-2H-azirine-2-carboxylate] | 800 |  |  |
| CCOC(=O)C1N=C1CCc1ccc(I)cc1 (stereo not drawn) [Compound 16, Ethyl 3-(4-iodophenethyl)-2H-azirine-2-carboxylate] | 800 |  |  |
| COc1ccc(CCC2=NC2C(=O)OC(C)(C)C)cc1 (stereo not drawn) [Compound 17, tert-Butyl 3-(4-methoxyphenethyl)-2H-azirine-2-carboxylate] | 400 |  |  |
| COc1ccc(CC2(C(=O)OCc3ccccc3)N=C2C)cc1 (stereo not drawn) [Compound 18, Benzyl 2-(4-methoxybenzyl)-3-methyl-2H-azirine-2-carboxylate] | 400 |  |  |
| CCCOC(=O)C1N=C1CCc1ccc(OC)cc1 (stereo not drawn) [Compound 19, Propyl 3-(4-methoxyphenethyl)-2H-azirine-2-carboxylate] | 800 |  |  |
| COc1ccc(CCC2=NC2C(=O)OC(C)C)cc1 (stereo not drawn) [Compound 20, Isopropyl 3-(4-methoxyphenethyl)-2H-azirine-2-carboxylate] | 750 |  |  |
| COc1ccc(CCC2=NC2C(=O)OCC(C)C)cc1 (stereo not drawn) [Compound 21, Isobutyl 3-(4-methoxyphenethyl)-2H-azirine-2-carboxylate] | 750 |  |  |
| CCC(C)OC(=O)C1N=C1CCc1ccc(OC)cc1 (stereo not drawn) [Compound 22, sec-Butyl 3-(4-methoxyphenethyl)-2H-azirine-2-carboxylate] | 600 |  |  |
| CCCCCOC(=O)C1N=C1CCc1ccc(OC)cc1 (stereo not drawn) [Compound 23, Pentyl 3-(4-methoxyphenethyl)-2H-azirine-2-carboxylate] | 600 |  |  |
| COc1ccc(CCC2=NC2C(=O)OCCC(C)C)cc1 (stereo not drawn) [Compound 24, Isopentyl 3-(4-methoxyphenethyl)-2H-azirine-2-carboxylate] | 700 |  |  |

| SMILES | IC50 [1] [nM] | IC50 value (endothelial tubule network assay, result in words) | remarks |
| --- | --- | --- | --- |
| COCCOC(=O)C1N=C1CCc1ccc(OC)cc1 (stereo not drawn) [Compound 25, 2-Methoxyethyl 3-(4-methoxyphenethyl)-2H-azirine-2-carboxylate] | 700 |  |  |
| C=CCOC(=O)C1N=C1CCc1ccc(OC)cc1 (stereo not drawn) [Compound 26, Allyl 3-(4-methoxyphenethyl)-2H-azirine-2-carboxylate] | 500 |  |  |
| CCOC(=O)C1N=C1CCc1ccc2ccccc2c1 (stereo not drawn) [Compound 27, Ethyl 3-(2-(naphthalen-2-yl)ethyl)-2H-azirine-2-carboxylate] | 100 |  | comparable to sunitinib |
| CCOC(=O)C1N=C1CCc1ccc(OC(F)(F)F)cc1 (stereo not drawn) [Compound 28, Ethyl 3-(4-(trifluoromethoxy)phenethyl)-2H-azirine-2-carboxylate] | 50 |  | comparable to sunitinib |
| CCCCCCCCOC(=O)C1N=C1CCc1ccc(OC)cc1 (stereo not drawn) [Compound 29, Octyl 3-(4-methoxyphenethyl)-2H-azirine-2-carboxylate] | 250 |  |  |
| CCOC(=O)C1N=C1CCC1CCCO1 (stereo not drawn) [Compound 30, Ethyl 3-(2-(tetrahydrofuran-2-yl)ethyl)-2H-azirine-2-carboxylate] | 250 |  |  |
| CCOC(=O)C1N=C1CCc1ccc(C#N)cc1 (stereo not drawn) [Compound 31, Ethyl 3-(4-cyanophenethyl)-2H-azirine-2-carboxylate] | 250 |  |  |
| CCCCOc1ccc(CCC2=NC2C(=O)OCC)cc1 (stereo not drawn) [Compound 32, Ethyl 3-(4-butoxyphenethyl)-2H-azirine-2-carboxylate] | 50 |  | comparable to sunitinib |
| CCOC(=O)C1N=C1CCc1c2ccccc2cc2ccccc12 (stereo not drawn) [Compound 33, Ethyl 3-(2-(anthracen-9-yl)ethyl)-2H-azirine-2-carboxylate] | 50 |  | comparable to sunitinib |
| CCOC(=O)C1(C(=O)OCC)N=C1CCc1ccc(OC)cc1 [Compound 35, Diethyl 3-(4-methoxyphenethyl)-2H-azirine-2,2-dicarboxylate] | 250 |  |  |
| C=Cc1ccc(CCC2=NC2C(=O)OCC)cc1 (stereo not drawn) [Compound 36, Ethyl 3-(4-vinylphenethyl)-2H-azirine-2-carboxylate] | 250 |  |  |
| CCOC(=O)C1N=C1CCCc1ccc2c(c1)CCO2 (stereo not drawn) [Compound 37, Ethyl-3-(3-(2,3-dihydrobenzofuran-5-yl)propyl)-2H-azirine-2-carboxylate] | 50 |  | comparable to sunitinib |
| CCOC(=O)C1N=C1CCc1cn(C(=O)OC(C)(C)C)c2ccccc12 (stereo not drawn) [Compound 38, tert-Butyl-3-(2-(2-(ethoxycarbonyl)-2H-azirin-3-yl)ethyl)-1H-indole-1-carboxylate] | 75 |  | comparable to sunitinib |
| CCOC(=O)C1N=C1CCc1ccc2c(c1)CCO2 (stereo not drawn) [Compound 39, Ethyl 3-(2-(2,3-dihydrobenzofuran-5-yl)ethyl)-2H-azirine-2-carboxylate] | 2500 |  |  |
| CCOC(=O)C1N=C1CCCc1ccc2occc2c1 (stereo not drawn) [Compound 40, Ethyl-3-(3-(benzofuran-5-yl)propyl)-2H-azirine-2-carboxylate] | 500 |  |  |
| CCOC(=O)C1N=C1CCc1ccc2c(c1)OCO2 (stereo not drawn) [Compound 41, Ethyl 3-(2-(benzo[d][1,3]dioxol-5-yl)ethyl)-2H-azirine-2-carboxylate] | 1000 |  |  |
| CCOC(=O)C1N=C1CCCCc1ccc2c(c1)CCO2 (stereo not drawn) [Compound 42, Ethyl 3-(4-(2,3-dihydrobenzofuran-5-yl)butyl)-2H-azirine-2-carboxylate] | 25 |  | comparable to sunitinib |
| CCOC(=O)C1N=C1CCCc1ccc2c(c1)OCO2 (stereo not drawn) [Compound 43, Ethyl 3-(3-(benzo[d][1,3]dioxol-5-yl)propyl)-2H-azirine-2-carboxylate] | 250 |  |  |
| CCOC(=O)C1N=C1CCCc1ccc2oc3ccccc3c2c1 (stereo not drawn) [Compound 44, Ethyl 3-(3-(dibenzo[b,d]furan-2-yl)propyl)-2H-azirine-2-carboxylate] | 250 |  |  |
| CCOC(=O)C1N=C1CCCc1ccc2c(c1)CCCO2 (stereo not drawn) [Compound 45, Ethyl 3-(3-(chroman-6-yl)propyl)-2H-azirine-2-carboxylate] | 100 |  | comparable to sunitinib |
| CCOC(=O)C1N=C1CCc1ccc(N(C)C)cc1 (stereo not drawn) [Compound 47, Ethyl 3-(4-(dimethylamino)phenethyl)-2H-azirine-2-carboxylate] | 500 |  |  |

Reference: patent US20230234920A1, “Azirine Containing Compounds as Anti-Angiogenesis Agents and a Process for the Preparation Thereof” (COUNCIL OF SCIENTIFIC & INDUSTRIAL RESEARCH, priority 2020, published 2023)
